In patent US6583125B2 (priority 1992, dated 2003):
Where two headings read alike, the source gives them in different places. *1 amine or outer side, *2 acyl side, *3 side chain or, on linkers, in order; H or OH if unused. Where a SMILES comes first, the peptide text is derived from it. Bridges are numbered along the chain shown (N, C = ends). Roman numbers before positions name the chains, in order. [ ]: non-standard residue; d: D form. Actinocin(9to1) = Cc1c2oc3c(C)ccc(C(=O)[*:1])c3nc-2c(C(=O)[*:2])c(N)c1=O; NMeV = CN[C@H](C(=O)O)C(C)C; Sar = CNCC(=O)O

Key:
[1] = human, in vivo; cited from earlier work
rats [2] = conditions: rat, in vivo
[3] = rat, in vivo
rats [4] = conditions: rat, in vivo; remark: listed apart in the source
rats [5] = conditions: rat, in vivo; remark: listed apart in the source
[6] = rat, in vivo; remark: listed apart in the source
[7] = male, Charles Rivers CD (Sprague-Dawley)

In the case of CN(C)/N=N/c1[nH]cnc1C(N)=O [dacarbazine], the “Acute Local tissue Effects (infiltration)” value [1] is given as “Pain, mild inflammation,” and the “Frequency of Phlebitis” value [1] is given as “Frequent”.
With COc1cccc2c1C(=O)c1c(O)c3c(c(O)c1C2=O)C[C@@](O)(C(=O)CO)C[C@@H]3O[C@H]1C[C@H](N)[C@H](O)[C@H](C)O1 [Doxorubicin, 10-[(3-amino-2,3,6-tri-deoxy-α-L-lyxo-hexopyransoyl)oxy]-7,8,9,10-tetrahydro-6,8,-11-trihydroxy-8-(hydroxyacetyl)-1-methyoxy-5,12-naphthacenedione] the rats with lesions (rats [2]; [7]) was “all 8”, the “rats with necrotic lesions of the skin” value (rats [2]; [7]) was “all 8” and the “effect on body weight” value [3] was “no adverse effect on body weight”. For the same compound, the “Frequency of Phlebitis” value [1] was “Frequent”.
In the case of COc1cc([C@@H]2c3cc4c(cc3[C@@H](O[C@@H]3O[C@@H]5CO[C@@H](c6cccs6)O[C@H]5[C@H](O)[C@H]3O)[C@H]3COC(=O)[C@H]23)OCO4)cc(OC)c1O [Tenoposide], the “Frequency of Phlebitis” value [1] is listed as “Frequent”.
In the case of CC(=O)O[C@H]1C(=O)[C@@]2(C)[C@H]([C@H](OC(=O)c3ccccc3)[C@]3(O)C[C@H](OC(=O)[C@H](O)[C@@H](NC(=O)c4ccccc4)c4ccccc4)C(C)=C1C3(C)C)[C@]1(OC(C)=O)CO[C@@H]1C[C@@H]2O [Taxol CV, Taxol], the rats with lesions (rats [4]; male, Charles Rivers CD) is reported as “all 8”.
For hydroxypropyl-β-cyclodextrin [HPCD], the lesion size (rats [5]) was 3.5 mm, the “diameter of the lesion in the one remaining animal” value (rats [2]) was 0.3 cm and the “rats with no lesion at any sampling time” value (rats [2]) was 7 of 8. For the same compound, the “effect on body weight” value [3] was “no effect on body weight” and the lesions caused (rats [4]) was “no lesions”.
For CC(=O)[C@]1(O)Cc2c(O)c3c(c(O)c2[C@@H](O[C@H]2C[C@H](N)[C@H](O)[C@H](C)O2)C1)C(=O)c1ccccc1C3=O [Idarubicin], the “Frequency of Phlebitis” value [1] is listed as “Frequent”.
For CO[C@@]12[C@H](COC(N)=O)C3=C(C(=O)C(C)=C(N)C3=O)N1C[C@@H]1N[C@@H]12 [mitomycin-c], the rats died ([6]; male) was “Five of 12” and the “loss of initial body weight” value [6] was “about 25%”.
For Cc1c2oc3c(C)ccc(C(=O)N[C@@H]4C(=O)N[C@H](C(C)C)C(=O)N5CCC[C@H]5C(=O)N(C)CC(=O)N(C)[C@@H](C(C)C)C(=O)O[C@@H]4C)c3nc-2c(C(=O)N[C@@H]2C(=O)N[C@H](C(C)C)C(=O)N3CCC[C@H]3C(=O)N(C)CC(=O)N(C)[C@@H](C(C)C)C(=O)O[C@@H]2C)c(N)c1=O [dactinomycin] (I: T[dV]P[Sar][NMeV] / II: T[dV]P[Sar][NMeV]; ester I:1-I:C, II:1-II:C; linker I:N-II:N via Actinocin(9to1)), the “Frequency of Phlebitis” value [1] is listed as “Frequent”.
For CN(N=O)C(=O)N[C@@H](C=O)[C@@H](O)[C@H](O)[C@H](O)CO [streptozocin], the “Frequency of Phlebitis” value [1] is given as “Infrequent”.
In the case of CC[C@]1(O)C[C@H]2CN(CCc3c([nH]c4ccccc34)[C@@](C(=O)OC)(c3cc4c(cc3OC)N(C=O)[C@H]3[C@@](O)(C(=O)OC)[C@H](OC(C)=O)[C@]5(CC)C=CCN6CC[C@]43[C@@H]65)C2)C1 [Vincristine, 22-Oxoyincaleukoblastine], the “Frequency of Phlebitis” value [1] is listed as “Infrequent”.
In the case of CO[C@@H]1[C@H](O)C[C@@H](O[C@@H]2C[C@H](Oc3cc4cc5c(c(O)c4c(O)c3C)C(=O)[C@@H](O[C@H]3C[C@@H](O[C@H]4C[C@@H](O[C@H]6C[C@](C)(O)[C@@H](OC(C)=O)[C@H](C)O6)[C@H](O)[C@@H](C)O4)[C@H](O)[C@@H](C)O3)[C@H]([C@H](OC)C(=O)[C@@H](O)[C@@H](C)O)C5)O[C@H](C)[C@@H]2OC(C)=O)O[C@@H]1C [Chromomycin A3], the “Acute Local tissue Effects (infiltration)” value [1] is listed as “Sever tissue sloughing” and the “Frequency of Phlebitis” value [1] is listed as “Frequent”.
For COc1cccc2c1C(=O)c1c(O)c3c(c(O)c1C2=O)C[C@@](O)(C(C)=O)C[C@@H]3O[C@H]1C[C@H](N)[C@H](O)[C@H](C)O1 [daunorubicin], the “Frequency of Phlebitis” value [1] is listed as “Frequent”.
